Square brackets hold non-standard residues; d marks the D form. Peptide text beside a SMILES is read from it. hArg = N=C(N)NCCCC[C@H](N)C(=O)O; dNle = CCCC[C@@H](N)C(=O)O; Nle = CCCC[C@H](N)C(=O)O; Orn = NCCC[C@H](N)C(=O)O; Nva = CCC[C@H](N)C(=O)O
tested on: secretion of ACTH stimulated by oCRF in cultured rat pituitary cells; assay: Blocking of oCRF-stimulated ACTH and β-endorphin secretion by cultured rat pituitary cells; assay type: cell-based; details: ACTH secretion stimulated by a 1 nM dose of oCRF; AHC(9-41) = reference
Procedure: The effectiveness of synthetic CRF antagonists to block the secretion of ACTH and β-endorphin by cultured rat pituitary cells is measured using the procedure as generally set forth in Vale et al., Endocrinology, 91, 562 (1972).

Compound | potency compared to AHC(9-41) in blocking by 50% the secretion of ACTH
[D-2Nal^12, Nle^21,38 ]-hCRF(12-41) [X] | about 9 times as potent as AHC(9-41)
[Nle^21,38, Arg^37 ]-hCRF(12-41) [IX] | more than 6 times as potent as AHC(9-41)

same assay, conditions: result in words

Compound | inhibition of the secretion of ACTH and β-END-LI
CCCC[C@H](NC(=O)[C@H](CCC(=O)O)NC(=O)[C@H](CC(C)C)NC(=O)[C@H](CCSC)NC(=O)[C@H](CCC(=O)O)NC(=O)[C@H](CCCNC(=N)N)NC(=O)[C@H](CC(C)C)NC(=O)[C@H](CC(C)C)NC(=O)[C@H](Cc1c[nH]cn1)NC(=O)[C@H](N)Cc1ccccc1)C(=O)N[C@@H](C)C(=O)N[C@@H](CCCCN)C(=O)N[C@@H](C)C(=O)N[C@@H](CCC(=O)O)C(=O)N[C@@H](CCC(N)=O)C(=O)N[C@@H](CCSC)C(=O)N[C@@H](C)C(=O)N[C@@H](CCC(=O)O)C(=O)N[C@@H](CCC(N)=O)C(=O)N[C@@H](C)C(=O)N[C@@H](C)C(=O)N[C@@H](CC(C)C)C(=O)N[C@@H](CC(N)=O)C(=O)N[C@@H](CCCNC(=N)N)C(=O)N[C@@H](CC(C)C)C(=O)N[C@@H](CC(C)C)C(=O)N[C@@H](CCCC)C(=O)N[C@@H](CCC(=O)O)C(=O)N[C@@H](CCC(=O)O)C(=O)N[C@@H](C)C(N)=O [XXI, [D-Phe^12, Met^27, Nle^21,38]-AHC (12-41)] (H-[dF]HLLREMLE[Nle]AKAEQMAEQAALNRLL[Nle]EEA-NH2) | inhibits the secretion of ACTH and β-END-LI
CCCC[C@H](NC(=O)[C@H](CC(C)C)NC(=O)[C@H](CC(C)C)NC(=O)[C@H](CCCNC(=N)N)NC(=O)[C@H](CC(N)=O)NC(=O)[C@H](CC(N)=O)NC(=O)[C@H](C)NC(=O)[C@H](C)NC(=O)[C@H](CCC(N)=O)NC(=O)[C@H](CCC(N)=O)NC(=O)[C@H](CCCCN)NC(=O)[C@H](CCC(=O)O)NC(=O)[C@H](CCCCN)NC(=O)[C@H](CCC(=O)O)NC(=O)[C@H](CCC(N)=O)NC(=O)[C@H](CCCCNC(=N)N)NC(=O)[C@H](CCC(=O)O)NC(=O)[C@H](C)NC(=O)[C@H](CCC(=O)O)NC(=O)[C@@H](NC(=O)[C@H](CCSC)NC(=O)[C@H](CCCCN)NC(=O)[C@H](CCCNC(=N)N)NC(=O)[C@H](CC(C)C)NC(=O)[C@H](CC(C)C)NC(=O)[C@H](CCC(=O)O)NC(=O)[C@@H](N)CC(C)C)[C@@H](C)CC)C(=O)N[C@@H](CC(=O)O)C(=O)N[C@@H](Cc1ccccc1)C(=O)N[C@H](C(N)=O)[C@@H](C)CC [XVII, [Ala^20, Har^22, Nle^37, Phe^39]-sauvagine (11-40)] (H-LELLRKMIEAE[hArg]QEKEKQQAANNRLL[Nle]DFI-NH2) | inhibits the secretion of ACTH and β-END-LI
CCCC[C@H](NC(=O)[C@H](CCC(=O)O)NC(=O)[C@H](CC(C)C)NC(=O)[C@@H](NC(=O)[C@H](CCC(=O)O)NC(=O)[C@H](CCCNC(=N)N)NC(=O)[C@H](CC(C)C)NC(=O)[C@H](CC(C)C)NC(=O)[C@H](Cc1c[nH]cn1)NC(=O)[C@H](Cc1ccccc1)NC(=O)[C@@H](NC(=O)[C@@H](N)CC(C)C)[C@@H](C)O)C(C)C)C(=O)N[C@@H](C)C(=O)N[C@@H](CCCNC(=N)N)C(=O)NCC(=O)N[C@@H](CCC(=O)O)C(=O)N[C@@H](CCC(N)=O)C(=O)N[C@@H](CC(C)C)C(=O)N[C@@H](C)C(=O)N[C@@H](CCC(N)=O)C(=O)N[C@@H](CCC(N)=O)C(=O)N[C@@H](C)C(=O)N[C@@H](Cc1ccc(O)cc1)C(=O)N[C@@H](CO)C(=O)N[C@@H](CC(N)=O)C(=O)N[C@@H](CCCNC(=N)N)C(=O)N[C@@H](CCCN)C(=O)N[C@@H](CC(C)C)C(=O)N[C@@H](CCCC)C(=O)N[C@@H](CCC(=O)O)C(=O)N[C@H](C(=O)N[C@H](C(N)=O)[C@@H](C)CC)[C@@H](C)CC [XV, [Nle^21,38, Gly^24, Tyr^32, Orn^36]-hCRF (10-41)] (H-LTFHLLREVLE[Nle]ARGEQLAQQAYSNR[Orn]L[Nle]EII-NH2) | inhibits the secretion of ACTH and β-END-LI
[D-2Nal^12, Nle^21,38 ]-hCRF(12-41) [X] | inhibits the secretion of ACTH and β-END-LI
[Nle^21,38, Arg^37 ]-hCRF(12-41) [IX] | inhibits the secretion of ACTH and β-END-LI
CCCC[C@H](NC(=O)[C@H](Cc1ccc(O)cc1)NC(=O)[C@H](CCCCN)NC(=O)[C@H](CCCNC(=N)N)NC(=O)[C@H](CC(N)=O)NC(=O)[C@H](CC(C)C)NC(=O)CNC(=O)[C@H](C)NC(=O)[C@H](CCC(N)=O)NC(=O)[C@H](CCC(=O)O)NC(=O)[C@H](CCCNC(=N)N)NC(=O)[C@H](CCC(N)=O)NC(=O)[C@H](CC(N)=O)NC(=O)[C@H](CCC(=O)O)NC(=O)[C@H](CC(N)=O)NC(=O)[C@H](CCCNC(=N)N)NC(=O)[C@H](C)NC(=O)[C@H](CCSC)NC(=O)[C@H](CCC(=O)O)NC(=O)[C@@H](NC(=O)[C@H](CCSC)NC(=O)[C@H](CC(N)=O)NC(=O)[C@H](CCCNC(=N)N)NC(=O)[C@H](CC(C)C)NC(=O)[C@H](CC(C)C)NC(=O)[C@H](Cc1c[nH]cn1)NC(=O)[C@@H](N)Cc1ccccc1)[C@@H](C)CC)C(=O)N[C@@H](CC(=O)O)C(=O)N[C@@H](CCC(=O)O)C(=O)N[C@H](C(N)=O)C(C)C [VI, [Nle^38]-Carp Urotensin I(12-41)] (H-FHLLRNMIEMARNENQREQAGLNRKY[Nle]DEV-NH2) | inhibits the secretion of ACTH and β-END-LI
[4ClD-Phe^12, Nle^18,21,38 ]-AHC(9-41) [XX] | inhibits the secretion of ACTH and β-END-LI
CCCC[C@H](NC(=O)[C@H](CC(C)C)NC(=O)[C@H](CC(C)C)NC(=O)[C@H](CCCNC(=N)N)NC(=O)[C@H](CC(N)=O)NC(=O)[C@H](CC(C)C)NC(=O)[C@H](C)NC(=O)[C@H](C)NC(=O)[C@H](CCC(N)=O)NC(=O)[C@H](CCC(=O)O)NC(=O)[C@H](C)NC(=O)[C@H](CCC(=O)O)NC(=O)[C@H](CCCCN)NC(=O)[C@H](CCC(=O)O)NC(=O)[C@H](C)NC(=O)[C@H](CCCCN)NC(=O)[C@H](CCC(=O)O)NC(=O)[C@H](CCSC)NC(=O)[C@H](CCC(=O)O)NC(=O)[C@H](CC(C)C)NC(=O)[C@H](CCSC)NC(=O)[C@H](CCC(=O)O)NC(=O)[C@H](CCCNC(=N)N)NC(=O)[C@H](CC(C)C)NC(=O)[C@H](CC(C)C)NC(=O)[C@H](CCC(=O)O)NC(=O)[C@@H](N)CC(C)C)C(=O)N[C@@H](CCC(=O)O)C(=O)N[C@@H](CCC(=O)O)C(=O)N[C@@H](C)C(N)=O [XXIII, [Leu^12, Glu^13,22, Lys^26, Nle^38]-AHC (12-41)] (H-LELLREMLEMEKAEKEAEQAALNRLL[Nle]EEA-NH2) | inhibits the secretion of ACTH and β-END-LI
CCCC[C@@H](N)C(=O)N[C@@H](Cc1c[nH]cn1)C(=O)N[C@@H](CC(C)C)C(=O)N[C@@H](CC(C)C)C(=O)N[C@@H](CCCNC(=N)N)C(=O)N[C@@H](CCC(=O)O)C(=O)N[C@@H](CCCC)C(=O)N[C@@H](CC(N)=O)C(=O)N[C@@H](CCC(=O)O)C(=O)N[C@@H](CCCC)C(=O)N[C@@H](CC(=O)O)C(=O)N[C@@H](CCCCN)C(=O)N[C@@H](C)C(=O)N[C@@H](CCC(=O)O)C(=O)N[C@@H](CCC(N)=O)C(=O)N[C@@H](Cc1ccccc1)C(=O)N[C@@H](C)C(=O)N[C@@H](CCC(=O)O)C(=O)N[C@@H](CCC(N)=O)C(=O)N[C@@H](C)C(=O)N[C@@H](C)C(=O)N[C@@H](CC(C)C)C(=O)N[C@@H](CC(N)=O)C(=O)N[C@@H](CCCNC(=N)N)C(=O)N[C@@H](CC(C)C)C(=O)N[C@@H](CC(C)C)C(=O)N[C@@H](CCCC)C(=O)N[C@@H](CCC(=O)O)C(=O)N[C@@H](CCC(=O)O)C(=O)N[C@@H](C)C(N)=O [XXVII, [D-Nle^12, Nle^18,21,38, Asn^19, Asp^22, Phe^27]-AHC(12-41)] (H-[dNle]HLLRE[Nle]NE[Nle]DKAEQFAEQAALNRLL[Nle]EEA-NH2) | inhibits the secretion of ACTH and β-END-LI
CCCC[C@H](NC(=O)[C@H](CC(C)C)NC(=O)[C@H](CCCCN)NC(=O)[C@H](CCCNC(=N)N)NC(=O)[C@H](CC(N)=O)NC(=O)[C@H](CO)NC(=O)[C@H](Cc1c[nH]cn1)NC(=O)[C@H](C)NC(=O)[C@H](CCC(N)=O)NC(=O)[C@H](CCC(N)=O)NC(=O)[C@H](C)NC(=O)[C@H](CC(C)C)NC(=O)[C@H](CCC(N)=O)NC(=O)[C@H](CCC(=O)O)NC(=O)[C@H](C)NC(=O)[C@H](CCCNC(=N)N)NC(=O)[C@H](C)NC(=O)[C@H](CCSC)NC(=O)[C@H](CCC(=O)O)NC(=O)CNC(=O)[C@@H](NC(=O)[C@H](CCC(=O)O)NC(=O)[C@H](CCCNC(=N)N)NC(=O)[C@H](CC(C)C)NC(=O)[C@H](CC(C)C)NC(=O)[C@H](Cc1c[nH]cn1)NC(=O)[C@H](Cc1ccccc1)NC(=O)[C@@H](NC(=O)[C@H](CC(C)C)NC(=O)[C@H](CC(=O)O)NC(C)=O)[C@@H](C)O)C(C)C)C(=O)N[C@@H](CC(=O)O)C(=O)N[C@@H](CCC)C(=O)N[C@H](C(N)=O)[C@@H](C)CC [XIII, [Acetyl-Asp^9, Gly^19, Nle^38, Asp^39, Nva^40]-hCRF(9-41)] (Ac-DLTFHLLREVGEMARAEQLAQQAHSNRKL[Nle]D[Nva]I-NH2) | inhibits the secretion of ACTH and β-END-LI
CCCC[C@H](NC(=O)[C@H](CCC(=O)O)NC(=O)[C@@H](NC(=O)[C@H](CCCC)NC(=O)[C@H](CC(N)=O)NC(=O)[C@H](CCCNC(=N)N)NC(=O)[C@H](CC(C)C)NC(=O)[C@H](CC(C)C)NC(=O)[C@H](Cc1c[nH]cn1)NC(=O)[C@@H](N)Cc1ccccc1)[C@@H](C)CC)C(=O)N[C@@H](C)C(=O)N[C@@H](CCCNC(=N)N)C(=O)N[C@@H](CC(N)=O)C(=O)N[C@@H](CCC(=O)O)C(=O)N[C@@H](CC(N)=O)C(=O)N[C@@H](CCC(N)=O)C(=O)N[C@@H](CCCNC(=N)N)C(=O)N[C@@H](CCC(=O)O)C(=O)N[C@@H](CCC(N)=O)C(=O)N[C@@H](C)C(=O)NCC(=O)N[C@@H](CC(C)C)C(=O)N[C@@H](CC(N)=O)C(=O)N[C@@H](CCCNC(=N)N)C(=O)N[C@@H](CCCCN)C(=O)N[C@@H](Cc1ccc(O)cc1)C(=O)N[C@@H](CCCC)C(=O)N[C@@H](CC(=O)O)C(=O)N[C@@H](CCC(=O)O)C(=O)N[C@H](C(N)=O)C(C)C [VIII, [Nle^18,21,38]-Carp Urotensin I(12-41)] (H-FHLLRN[Nle]IE[Nle]ARNENQREQAGLNRKY[Nle]DEV-NH2) | inhibits the secretion of ACTH and β-END-LI
[CML^14,19,27,36, Nle^38 ]-AHC(12-41) [XXVI] | inhibits the secretion of ACTH and β-END-LI

From patent US5109111A, “CRF antagonists” (The Salk Institute for Biological Studies, priority 1990, dated 1992)
